Reference: patent US8975249B2, “Heterocyclic compounds and uses thereof” (Celgene Avilomics Research, Inc., priority 2010, dated 2015)

Legend:
EGFR (WT) = EGFR (WT) (Homo sapiens (Human), UniProt P00533); test: Omnia biochemical assay, EGFR-WT active enzyme; conditions: [EGFR-WT]=5 nM, [ATP]=15 uM, 30 min pre-incubation
Experimental: Kinase reactions were started with the addition of 45 μL of the ATP/Tyr-Sox peptide substrate mix and monitored every 71 seconds for 60 minutes at λex360/λem485 in a Synergy^4 plate reader from BioTek (Winooski, Vt.).
The compound numbers correspond to the compound numbers in Table 1.

[1] = molecular target: EGFR double mutation L858R/T790M (H1975 cells) (Homo sapiens (Human), UniProt P00533, L858R/T790M); test: Phospho-EGFR signaling immunoblot in H1975 cells; type: cell-based; conditions: for EC50: H1975 cells, 1 hr treatment, phospho-EGFR (Y1068); for Ratio WT/mutant (H1975): signaling EC50 WT EGFR / H1975
Experimental: (§1) A431 human epidermoid carcinoma, H1975 human NSCLC and HCC827 human NSCLC adenocarcinoma cells were obtained from the American Type Culture Center (Manassas, Va.). A431 cells were grown in DMEM (Invitrogen, Carlsbad, Calif.) supplemented with 10% FBS (HyClone, South Logan, Utah) and 1% Penicillin-Streptomycin (P/S, Lonza, Walkersville, Md.).
(§2) All primary antibodies were obtained from Cell Signaling (Danvers, Mass.) and used at 1:1000. Secondary antibodies were used at 1:10,000. Goat anti-mouse IgG IRDye 800CW antibody was obtained from LiCor Biosciences (Lincoln, Nebr.) and goat anti-rabbit IgG Alexa Fluor 680 was obtained from Invitrogen.
(§3) Cells were grown in 12-well plates (Corning, Coring, N.Y.) to 90% confluence and then incubated in low-serum (0.1% FBS) media for 16-18 hr. […] A431 cells were then stimulated with 50 ng/ml EGF (Peprotech, Rocky Hill, N.J.) for 15 min. After treatment, cell monolayers were washed with cold PBS (Invitrogen) and immediately lysed by scrapping into 60 uL cold Cell Extraction Buffer (Invitrogen) supplemented with Complete Protease inhibitors (Roche, Indianapolis, Ind.) and PhosphoSTOP (Roche) phosphatase inhibitors.
(§4) Phospho-protein signals were quantitated using Odyssey Infrared Imaging (Li-Cor Biosciences).
(§5) To assess phosphor-EGFR signaling, blots were probed with rabbit anti-Phospho-EGFR (Y1068) and mouse total anti-EGFR antibodies. Phospho-EGFR signal was normalized to total EGFR expression for each sample. […] Normalized data was fitted using a sigmoidal curve analysis program (Graph Pad Prism version 5) with variable Hill slope to determine the EC50 values.
(§6) The compound numbers recited in Table 4 correspond to the compound numbers in Table 1.

[2] = test system: HCC827 cells (EGFR delE746-A750); test: Cell proliferation (CellTiter Glo), HCC827 cells; conditions: proliferation GI50 WT EGFR / HCC827
Experimental: (§7) Cells were plated in Growth Media supplemented with 5% FBS and 1% P/S at a density of 3,000 cells per well in 96 well tissue culture plates (Corning). […] Growth inhibition (GI50) values were determined by Graph Pad Prism.

[3] = test system: H1975 cells (EGFR L858R/T790M); test: Cell proliferation (CellTiter Glo), H1975 cells; conditions: proliferation GI50 WT EGFR / H1975
Experimental: as §7

WT EGFR (A431 cells) = WT EGFR (A431 cells) (Homo sapiens (Human), UniProt P00533); test: Phospho-EGFR signaling immunoblot in A431 cells (WT EGFR); type: cell-based; conditions: 1 hr treatment, EGF stimulated, phospho-EGFR (Y1068)
Experimental: as §1, §2, §3, §4, §5, §6

Row | SMILES | IC50 (EGFR (WT)) | EC50 [1] | Ratio WT/mutant (H1975) [1] | Ratio WT/mutant (HCC827) [2] | Ratio WT/mutant (H1975) [3] | EC50 (WT EGFR (A431 cells))
1 | C=CC(=O)Nc1cccc(Oc2nc(Nc3ccc(N4CCN(C(=O)CO)CC4)cc3OC)ncc2Cl)c1 [Compound I-3, N-(3-(5-chloro-2-(4-(4-(2-hydroxyacetyl)piperazin-1-yl)-2-methoxyphenylamino)pyrimidin-4-yloxy)phenyl)acrylamide] | 1 to 10 nM | 500 to 1000 nM | >5 | >45 | >5 | > 1000 nM
2 | C=CC(=O)Nc1cccc(Nc2nc(Nc3ccc(N4CCCN(C(=O)OC(C)(C)C)CC4)cc3OC)ncc2C(F)(F)F)c1 [Compound I-44, tert-butyl 4-(4-(4-(3-acrylamidophenylamino)-5-(trifluoromethyl)pyrimidin-2-ylamino)-3-methoxyphenyl)-1,4-diazepane-1-carboxylate] | 300 to 1000 nM | 500 to 1000 nM | >5 | >5 | >5 | > 1000 nM
3 | C=CC(=O)Nc1cccc(Oc2nc(Nc3ccc(N4CCN(S(C)(=O)=O)CC4)cc3OC)ncc2Cl)c1 [Compound I-26, N-(3-(5-chloro-2-(2-methoxy-4-(4-(methylsulfonyl)piperazin-1-yl)phenylamino)pyrimidin-4-yloxy)phenyl)acrylamide] | 10 to 30 nM | 100 to 500 nM | >40 | >35 | >1 | > 1000 nM
4 | C=CC(=O)Nc1cccc(Nc2nc(Nc3ccc(N4CCN(C(=O)CO)CC4)cc3OC)ncc2C(F)(F)F)c1 [Compound I-6, N-(3-(2-(4-(4-(2-hydroxyacetyl)piperazin-1-yl)-2-methoxyphenylamino)-5-(trifluoromethyl)pyrimidin-4-ylamino)phenyl)acrylamide] | 1 to 10 nM | 10 to 100 nM | >20 | >40 | >10 | > 1000 nM
5 | C=CC(=O)Nc1cccc(Nc2nc(Nc3ccc(N4CCN(C(=O)C(C)(C)C)CC4)cc3OC)ncc2C(F)(F)F)c1 [Compound I-34, N-(3-(2-(2-methoxy-4-(4-pivaloylpiperazin-1-yl)phenylamino)-5-(trifluoromethyl)pyrimidin-4-ylamino)phenyl)acrylamide] | 30 to 100 nM | 100 to 500 nM | >35 | >50 | >5 | > 1000 nM
6 | C=CC(=O)Nc1cccc(Oc2nc(Nc3ccc(N4CCN(S(C)(=O)=O)CC4)cc3OC)ncc2C(F)(F)F)c1 [Compound I-22, N-(3-(2-(2-methoxy-4-(4-(methylsulfonyl)piperazin-1-yl)phenylamino)-5-(trifluoromethyl)pyrimidin-4-yloxy)phenyl)acrylamide] | 30 to 100 nM | 100 to 500 nM | >35 | >35 | >10 | > 1000 nM
7 | C=CC(=O)Nc1cccc(Nc2nc(Nc3ccc(N4CCN(S(C)(=O)=O)CC4)cc3OC)ncc2Cl)c1 [Compound I-41, N-(3-(5-chloro-2-(2-methoxy-4-(4-(methylsulfonyl)piperazin-1-yl)phenylamino)pyrimidin-4-ylamino)phenyl)acrylamide] | 30 to 100 nM | > 1000 nM | >1 | >20 | >1 | > 1000 nM
8 | C=CC(=O)Nc1cccc(Nc2nc(Nc3ccc(N4CCN(C(=O)CO)CC4)cc3OC)ncc2Cl)c1 [Compound I-12, N-(3-(5-chloro-2-(4-(4-(2-hydroxyacetyl)piperazin-1-yl)-2-methoxyphenylamino)pyrimidin-4-ylamino)phenyl)acrylamide] | 10 to 30 nM | > 1000 nM | >1 | >30 | >1 | > 1000 nM
9 | C=CC(=O)Nc1cccc(Nc2nc(Nc3ccc(N4CCN(C(C)=O)[C@H](C(=O)OC)C4)cc3OC)ncc2C(F)(F)F)c1 [Compound I-48, (S)-methyl 1-acetyl-4-(4-(4-(3-acrylamidophenylamino)-5-(trifluoromethyl)pyrimidin-2-ylamino)-3-methoxyphenyl)piperazine-2-carboxylate] | 10 to 30 nM | 10 to 100 nM | >50 | >15 | >10 | > 1000 nM
10 | C=CC(=O)Nc1cccc(Nc2nc(Nc3ccc(N4CCN(C(C)=O)CC4)cc3OC)ncc2Br)c1 [Compound I-40, N-(3-(2-(4-(4-acetylpiperazin-1-yl)-2-methoxyphenylamino)-5-bromopyrimidin-4-ylamino)phenyl)acrylamide] | 10 to 30 nM | > 1000 nM | >1 | >10 | >5 | > 1000 nM
11 | C=CC(=O)Nc1cccc(Oc2nc(Nc3ccc(N4CCN(C(=O)CO)CC4)cc3OC)ncc2C(F)(F)F)c1 [Compound I-11, N-(3-(2-(4-(4-(2-hydroxyacetyl)piperazin-1-yl)-2-methoxyphenylamino)-5-(trifluoromethyl)pyrimidin-4-yloxy)phenyl)acrylamide] | 10 to 30 nM | 100 to 500 nM | >15 | >45 | >5 | > 1000 nM
12 | C=CC(=O)Nc1cccc(Nc2nc(Nc3ccc(N4CCN(C(C)=O)CC4)cc3OC)ncc2Cl)c1 [Compound I-8, N-(3-(2-(4-(4-acetylpiperazin-1-yl)-2-methoxyphenylamino)-5-chloropyrimidin-4-ylamino)phenyl)acrylamide] | 10 to 30 nM | > 1000 nM | >1 | >20 | >1 | > 1000 nM
13 | C=CC(=O)Nc1cccc(Nc2nc(Nc3ccc(N4CCN(C(C)=O)CC4)cc3OC(F)(F)F)ncc2C(F)(F)F)c1 [Compound I-33, N-(3-(2-(4-(4-acetylpiperazin-1-yl)-2-(trifluoromethoxy)phenylamino)-5-(trifluoromethyl)pyrimidin-4-ylamino)phenyl)acrylamide] | 1 to 10 nM | 10 to 100 nM | >50 | >15 | >30 | > 1000 nM
14 | C=CC(=O)Nc1cccc(Oc2nc(Nc3ccc(N4CCN(C(=O)NC)CC4)cc3OC)ncc2C(F)(F)F)c1 [Compound I-21, 4-(4-(4-(3-acrylamidophenoxy)-5-(trifluoromethyl)pyrimidin-2-ylamino)-3-methoxyphenyl)-N-methylpiperazine-1-carboxamide] | 10 to 30 nM | 100 to 500 nM | >5 | >20 | >1 | > 1000 nM
15 | C=CC(=O)Nc1cccc(Nc2nc(Nc3ccc(N4CCS(=O)(=O)CC4)cc3OC)ncc2C(F)(F)F)c1 [Compound I-49, N-(3-(2-(2-methoxy-4,4-dioxo-4-thiomorpholinophenylamino)-5-(trifluoromethyl)pyrimidin-4-ylamino)phenyl)acrylamide] | 1 to 10 nM | 10 to 100 nM | >20 | >25 | >10 | > 1000 nM
16 | C=CC(=O)Nc1cccc(Nc2nc(Nc3ccc(N4CCCN(C(C)=O)CC4)cc3OC)ncc2C(F)(F)F)c1 [Compound I-7, N-(3-(2-(4-(4-acetyl-1,4-diazepan-1-yl)-2-methoxyphenylamino)-5-(trifluoromethyl)pyrimidin-4-ylamino)phenyl)acrylamide] | 10 to 30 nM | 100 to 500 nM | >5 | >10 | >1 | > 1000 nM
